Measurements from ChEMBL document CHEMBL1201862, “PubChem BioAssay data set” (2004).
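Five compound concentrations were applied to cells in 96-well plates for 48 hours; endpoints were derived by simple linear interpolation of the resulting dose-response curve. Here, GI50 denotes the concentration required for 50% inhibition of growth.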 Calls of active or inactive are those of the source. Cut-off read from the data, not from the text of the source: active = GI50 up to about 1.1 µM and inactive = higher.

Legend:
Experiment in all cases: DTP human tumour cell line panel, 48 h
HCC 2998 = system: HCC 2998
RPMI-8226 = system: RPMI-8226
SF-295 = system: SF-295
A498 = system: A498
MDA-N = system: MDA-N
SK-MEL-2 = system: SK-MEL-2
OVCAR-3 = system: OVCAR-3
HT-29 = system: HT-29
T47D = system: T47D
NCI-H226 = system: NCI-H226
SNB-75 = system: SNB-75
HCT-116 = system: HCT-116
Hs-578T = system: Hs-578T
NCI-H23 = system: NCI-H23
SR = system: SR
OVCAR-8 = system: OVCAR-8
EKVX = system: EKVX
CCRF-CEM = system: CCRF-CEM
A549 = system: A549
M14 = system: M14

| Compound | GI50 (HCC 2998) | GI50 (RPMI-8226) | GI50 (SF-295) | GI50 (A498) | GI50 (MDA-N) | GI50 (SK-MEL-2) | GI50 (OVCAR-3) | GI50 (HT-29) | GI50 (T47D) | GI50 (NCI-H226) | GI50 (SNB-75) | GI50 (HCT-116) | GI50 (Hs-578T) | GI50 (NCI-H23) | GI50 (SR) | GI50 (OVCAR-8) | GI50 (EKVX) | GI50 (CCRF-CEM) | GI50 (A549) | GI50 (M14) |
| --- | --- | --- | --- | --- | --- | --- | --- | --- | --- | --- | --- | --- | --- | --- | --- | --- | --- | --- | --- | --- |
| COc1ccc(-n2c(C)nc3ccc(NC4OC(COC(C)=O)C(OC(C)=O)C(OC(C)=O)C4OC(C)=O)cc3c2=O)cc1 (centres undefined) | > 100 µM (inactive) | 27.1 µM (inactive) | > 100 µM (inactive) | > 100 µM (inactive) | 83.4 µM (inactive) | > 100 µM (inactive) | > 100 µM (inactive) | 53.3 µM (inactive) | > 100 µM (inactive) | 32.7 µM (inactive) | > 100 µM (inactive) | 21.8 µM (inactive) | 49.8 µM (inactive) | 60.4 µM (inactive) | 73.3 µM (inactive) | 32.9 µM (inactive) | > 100 µM (inactive) | – | – | – |
| CC(=O)OCCn1cnc2nc(Nc3ccccc3)nc(Cl)c21 | 74.5 µM (inactive) | 89.5 µM (inactive) | 82 µM (inactive) | > 100 µM (inactive) | 36.1 µM (inactive) | – | > 100 µM (inactive) | > 100 µM (inactive) | 40.7 µM (inactive) | > 100 µM (inactive) | – | 71.1 µM (inactive) | > 100 µM (inactive) | > 100 µM (inactive) | 54.8 µM (inactive) | > 100 µM (inactive) | > 100 µM (inactive) | 69.2 µM (inactive) | > 100 µM (inactive) | – |
| CC1(C)C(=O)C(C)(C)C12SSC1(S2)C(C)(C)C(=O)C1(C)C | > 100 µM (inactive) | 65.9 µM (inactive) | > 100 µM (inactive) | > 100 µM (inactive) | > 100 µM (inactive) | > 100 µM (inactive) | > 100 µM (inactive) | > 100 µM (inactive) | > 100 µM (inactive) | 42.6 µM (inactive) | > 100 µM (inactive) | > 100 µM (inactive) | > 100 µM (inactive) | > 100 µM (inactive) | > 100 µM (inactive) | > 100 µM (inactive) | > 100 µM (inactive) | – | 64.9 µM (inactive) | > 100 µM (inactive) |
| Oc1cc(O)c2c(c1)O[C@H](c1cc(O)c(O)c(O)c1)[C@H](O)C2 [EPIGALLOCATECHIN] | > 10 µM (inactive) | 13.8 µM (inactive) | 30.5 µM (inactive) | > 100 µM (inactive) | 18.8 µM (inactive) | 7.96 µM (inactive) | 47 µM (inactive) | – | 37.2 µM (inactive) | 26.4 µM (inactive) | 31.6 µM (inactive) | 19.2 µM (inactive) | 52 µM (inactive) | 23.1 µM (inactive) | 14.4 µM (inactive) | 16.1 µM (inactive) | > 10 µM (inactive) | 17.9 µM (inactive) | 27.5 µM (inactive) | 23.6 µM (inactive) |
| Cc1ccc(C)c2c1NC(=O)/C2=N\Nc1ccccc1[N+](=O)[O-] | > 100 µM (inactive) | > 100 µM (inactive) | > 100 µM (inactive) | > 100 µM (inactive) | > 100 µM (inactive) | 78 µM (inactive) | > 100 µM (inactive) | – | > 100 µM (inactive) | – | > 100 µM (inactive) | > 100 µM (inactive) | 35.7 µM (inactive) | > 100 µM (inactive) | 1.61 µM (inactive) | – | > 100 µM (inactive) | > 100 µM (inactive) | > 100 µM (inactive) | > 100 µM (inactive) |
| N#CCCN(CCCCN(CCC#N)C(=O)Nc1ccccc1)C(=O)Nc1ccccc1 | > 100 µM (inactive) | > 100 µM (inactive) | > 100 µM (inactive) | > 100 µM (inactive) | > 100 µM (inactive) | > 100 µM (inactive) | > 100 µM (inactive) | > 100 µM (inactive) | > 100 µM (inactive) | > 100 µM (inactive) | 15.5 µM (inactive) | > 100 µM (inactive) | > 100 µM (inactive) | > 100 µM (inactive) | > 100 µM (inactive) | > 100 µM (inactive) | > 100 µM (inactive) | – | > 100 µM (inactive) | > 100 µM (inactive) |
| Cc1c(/N=N/c2ccccc2)c(C)n(C2OC(CO)C(O)C(O)C2O)c(=S)c1C#N (centres undefined) | 21.8 µM (inactive) | 40.2 µM (inactive) | 34.5 µM (inactive) | 34.9 µM (inactive) | 19.9 µM (inactive) | 16.2 µM (inactive) | 21.6 µM (inactive) | 32.7 µM (inactive) | 39.2 µM (inactive) | – | 42.2 µM (inactive) | 21.1 µM (inactive) | 1 µM (active) | 27.3 µM (inactive) | 21.4 µM (inactive) | – | – | 22.5 µM (inactive) | 35.5 µM (inactive) | 25.6 µM (inactive) |
| CCOC(=O)c1sc2c(c1O)c(=O)n(-c1ccccc1)c(=S)n2-c1ccccc1 | > 100 µM (inactive) | 28.2 µM (inactive) | 35.5 µM (inactive) | – | > 100 µM (inactive) | > 100 µM (inactive) | 51.1 µM (inactive) | 80.5 µM (inactive) | > 100 µM (inactive) | > 100 µM (inactive) | 37.5 µM (inactive) | – | > 100 µM (inactive) | 91.4 µM (inactive) | 10.8 µM (inactive) | 54.7 µM (inactive) | – | 32.7 µM (inactive) | 55.3 µM (inactive) | > 100 µM (inactive) |
| Cc1ccc2ccc(=O)oc2c1 | – | > 100 µM (inactive) | > 100 µM (inactive) | > 100 µM (inactive) | > 100 µM (inactive) | > 100 µM (inactive) | > 100 µM (inactive) | > 100 µM (inactive) | 94.6 µM (inactive) | > 100 µM (inactive) | > 100 µM (inactive) | > 100 µM (inactive) | > 100 µM (inactive) | > 100 µM (inactive) | > 100 µM (inactive) | > 100 µM (inactive) | > 100 µM (inactive) | > 100 µM (inactive) | > 100 µM (inactive) | > 100 µM (inactive) |
| CC12ON(P(=O)(c3ccccc3)c3ccccc3)C(C)(c3ccccc31)c1ccccc12 | > 100 µM (inactive) | 58.9 µM (inactive) | > 100 µM (inactive) | – | > 100 µM (inactive) | > 100 µM (inactive) | > 100 µM (inactive) | > 100 µM (inactive) | 51.3 µM (inactive) | > 100 µM (inactive) | > 100 µM (inactive) | > 100 µM (inactive) | > 100 µM (inactive) | > 100 µM (inactive) | 46.1 µM (inactive) | > 100 µM (inactive) | > 100 µM (inactive) | 46.2 µM (inactive) | > 100 µM (inactive) | > 100 µM (inactive) |
| COc1cc(CNc2ccc3nc4n(c(=O)c3c2)CCCCC4)cc(OC)c1OC | – | 72.3 µM (inactive) | 47.9 µM (inactive) | 50.6 µM (inactive) | 46.2 µM (inactive) | 40.4 µM (inactive) | 39.8 µM (inactive) | 81.7 µM (inactive) | 24.1 µM (inactive) | 78.9 µM (inactive) | 48.9 µM (inactive) | 57.5 µM (inactive) | 51.9 µM (inactive) | 37.2 µM (inactive) | > 100 µM (inactive) | > 100 µM (inactive) | 36.6 µM (inactive) | 13.6 µM (inactive) | 51.1 µM (inactive) | 94.4 µM (inactive) |
| CCCNC(=S)N/N=C/c1cccc(C)n1 | 19.5 µM (inactive) | 24.3 µM (inactive) | 32.8 µM (inactive) | 33 µM (inactive) | 30.6 µM (inactive) | 1.09 µM (active) | 2.91 µM (inactive) | 18 µM (inactive) | 3.43 µM (inactive) | 19.8 µM (inactive) | – | 7.18 µM (inactive) | > 100 µM (inactive) | 28.9 µM (inactive) | 15 µM (inactive) | 28 µM (inactive) | 30.9 µM (inactive) | 2.69 µM (inactive) | 26.4 µM (inactive) | 12.3 µM (inactive) |
| O=C(O)c1nc2cc(Cl)ccc2[nH]c1=O | > 100 µM (inactive) | > 100 µM (inactive) | > 100 µM (inactive) | > 100 µM (inactive) | > 100 µM (inactive) | > 100 µM (inactive) | > 100 µM (inactive) | > 100 µM (inactive) | > 100 µM (inactive) | > 100 µM (inactive) | – | > 100 µM (inactive) | > 100 µM (inactive) | > 100 µM (inactive) | > 100 µM (inactive) | > 100 µM (inactive) | > 100 µM (inactive) | > 100 µM (inactive) | > 100 µM (inactive) | > 100 µM (inactive) |
| CC(=O)c1[nH]c(Nc2ccc(C)cc2)c(C(=S)Nc2ccccc2)c1N | 18.6 µM (inactive) | – | 17.8 µM (inactive) | 13.8 µM (inactive) | 16 µM (inactive) | 15.5 µM (inactive) | 15.2 µM (inactive) | 25.8 µM (inactive) | 12.8 µM (inactive) | 14.4 µM (inactive) | 19.9 µM (inactive) | 16.7 µM (inactive) | 20 µM (inactive) | 17.8 µM (inactive) | 22.3 µM (inactive) | 18.1 µM (inactive) | 24.3 µM (inactive) | 21 µM (inactive) | 14.9 µM (inactive) | 17.1 µM (inactive) |
| CN(C(=O)Cc1ccccc1)n1cn[n+](CC(=O)OC(C)(C)C)c1 | > 10 µM (inactive) | 0.00119 µM (active) | > 10 µM (inactive) | > 10 µM (inactive) | > 10 µM (inactive) | – | > 10 µM (inactive) | > 10 µM (inactive) | > 10 µM (inactive) | > 10 µM (inactive) | – | > 10 µM (inactive) | > 10 µM (inactive) | > 10 µM (inactive) | > 10 µM (inactive) | > 10 µM (inactive) | > 10 µM (inactive) | > 10 µM (inactive) | > 10 µM (inactive) | > 10 µM (inactive) |
